pIC50: −log10 of the molar value.
Assays:
[1] = system: DSS-induced colitis in C57BL/6 female mice; assay: In vivo mouse DSS study - colon length; details: for Colon length Mean: oral gavage, day 10; for Recovery % (vs vehicle) / Reduction % (vs naïve): colon length
Description: In this study, 12-week-old C57BL/6 female mice (Taconic, the Cambridge City) were supplemented with 2.5% DSS (MP Biomedicals, MW 36,000-50,000) in drinking water for days 0-7, and then switched to normal drinking water beginning on day 7 and continued through day 10. Mice were treated once/twice daily by oral gavage with different compounds of Formula (A) (e.g., B15S, B15R, B30R, or B41R) in different dosing levels or with vehicle solution of 2% HPMC, 1% Tween 80 (w/v) in DI water starting on day 0. Mice were sacrificed on day 10 for assessment of colon length. The DSS-induced model of colitis is a widely used animal model for studying the pathogenesis of and potential treatments for UC, which is a primary form of IBD. DSS water intake causes colonic mucosa injury and erosion, gland loss, and infiltration of proinflammatory immune cells in the colon tissue, followed by mucosal repair and tissue remodeling. This is manifested by a shortened colon, the degree of which correlates well with the severity of mucosal injury in this mouse model of DSS-induced experimental colitis.

[2] = target: T1, human recombinant 15-PGDH (Homo sapiens, UniProt P15428); assay: Recombinant 15-PGDH enzymatic inhibition assay (PGDH-Lumi, NADH signal); assay type: biochemical; details: for pIC50: recombinant 15-PGDH, 15 min pre-incubation, 60 min reaction with PGE2 and NAD+, NADH signal
T1 sequence (P15428 1-266): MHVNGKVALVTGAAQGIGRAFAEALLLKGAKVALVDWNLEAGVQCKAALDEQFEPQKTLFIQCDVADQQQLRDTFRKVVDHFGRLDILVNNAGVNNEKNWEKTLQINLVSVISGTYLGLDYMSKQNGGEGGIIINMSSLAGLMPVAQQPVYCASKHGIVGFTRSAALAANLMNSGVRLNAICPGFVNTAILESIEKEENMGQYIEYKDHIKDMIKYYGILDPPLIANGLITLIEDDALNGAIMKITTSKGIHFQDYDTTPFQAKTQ
Procedure, shortened: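 Recombinant 15-PGDH pre-incubated 15 min at room temperature with compound (22 concentrations, 2-fold dilutions) in 50 mM Tris pH 7.5, 0.01% Tween-20, […].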

[3] = target: T2, 15-PGDH in A549 cells (Homo sapiens, UniProt P15428); assay: A549 cellular 15-PGDH assay (PGE2 accumulation, HTRF); assay type: cell-based; details: interleukin-stimulated, inhibitor 24 hrs, PGE2 by competitive HTRF, read-out: A549 Cell Assay IC50
T2 construct: endogenous in cells; host or cells: A549
T2 sequence (P15428 1-266): T1 sequence (P15428 1-266)
Procedure, shortened: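 IL-13-stimulated A549 lung carcinoma cells released PGE2, which was measured in supernatants by competitive HTRF with a Eu-cryptate anti-PGE2 antibody and labelled PGE2. Signal falls as PGE2 rises. IC50 values were derived from the binding data.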

[4] = system: DSS-induced colitis in C57BL/6 mice; assay: In vivo mouse DSS study - histopathological analysis of colon; details: versus DSS + vehicle
Description: Histopathological analysis was performed on the […] mice from the DSS study described above. Analysis was performed on mice from the B15R, B30R, or B41R groups. Briefly, mouse colon tissues were collected at necropsy, flushed with PBS, manipulated intact into individual modified Swiss rolls, placed into separate tissue cassettes and fixed for approximately 24 hours by immersion in 10% neutral buffered formalin followed by transfer to […]. Fixed tissues were routinely processed, paraffin-embedded, sectioned, mounted on glass slides and hematoxylin and eosin stained. Glass slides were scanned and digital images were accessed for histopathology evaluation. Prior to histopathology assessment, metadata for all digital images reviewed was exported from a digital pathology platform database into an Excel spreadsheet, followed by assignment of each digital image with a random number (greater than 0 and less than 1) using the RAND function in Excel. From smallest to largest random number assigned, each digital image was retrieved for evaluation using only the RTLIMS Inventory Code as the unique identifier for each digital image. Each digital image was individually reviewed without knowledge of treatment group (blinded/masked evaluation), and with the slide label image hidden when viewing digital images. […] Scoring of tissues for DSS-induced colitis was performed using a scoring system and criteria modified and adapted from BolderBioPATH, Inc./Inotiv. Ordinal data (histopathology scores) were analyzed using a non-parametric Kruskal-Wallis one-way analysis of variance test followed by a Dunn's multiple comparison test (GraphPad Prism).
The following scoring systems were used to provide histological scores: […]

pIC50 [2] | pIC50 [3] | SMILES | Colon length Mean ([1]; 0.625 mpk, BID) [cm] | Colon length Mean ([1]; 1.25 mpk, QD) [cm] | Colon length Mean ([1]; 2.5 mpk, BID) [cm] | Colon length Mean ([1]; 5 mpk, QD) [cm] | Recovery % (vs vehicle) ([1]; 0.625 mpk, BID) [%] | Reduction % (vs naïve) ([1]; 0.625 mpk, BID) [%] | Recovery % (vs vehicle) ([1]; 1.25 mpk, QD) [%] | Reduction % (vs naïve) ([1]; 1.25 mpk, QD) [%] | Recovery % (vs vehicle) ([1]; 2.5 mpk, BID) [%] | Reduction % (vs naïve) ([1]; 2.5 mpk, BID) [%] | Recovery % (vs vehicle) ([1]; 5 mpk, QD) [%] | Reduction % (vs naïve) ([1]; 5 mpk, QD) [%] | erosion scores ([4]; all doses evaluated) | inflammation scores ([4]; all doses evaluated) | sum of histopathology scores ([4]; all doses evaluated) | also measured
9.80 | 9.63 | Cn1cc2cc(-c3ccc4cc([C@H](O)C5CC(F)(F)C5)sc4n3)cnc2n1 (single isomer, unassigned) [Compound B30R] | 7.622 | 7.733 | 7.780 | 8.360 | 56.343 | 9.413 | 62.467 | 8.093 | 65.039 | 7.538 | 97.008 | 0.645 | decreased severity | decreased severity | decreased severity | Colon length Mean ([1]; 10 mpk, QD): 8.110 cm; Colon length Mean ([1]; 20 mpk, QD): 8.188 cm; Recovery % (vs vehicle) ([1]; 10 mpk, QD): 83.228%; Reduction % (vs naïve) ([1]; 10 mpk, QD): 3.616%; Recovery % (vs vehicle) ([1]; 20 mpk, QD): 87.5%; Reduction % (vs naïve) ([1]; 20 mpk, QD): 2.265%; colon length comparing to vehicle group ([1]; different doses daily): significant improvement of colon length; gland loss scores ([4]; at 0.625 mg/kg BID, 1.25 mg/kg QD, 2.5 mg/kg BID and 5 mg/kg QD): decreased severity
9.02 | 8.67 | Cn1nnc2cc(-c3ccc4cc([C@H](O)C5CCOCC5)sc4n3)cnc21 (single isomer, unassigned) [Compound B41R] | – | – | – | – | – | – | – | – | – | – | – | – | decreased severity | decreased severity | decreased severity | colon length comparing to vehicle group ([1]; 2.5 mg/kg and 10 mg/kg daily): significant improvement of colon length; Colon length Mean ([1]; 0.1 mpk, QD): 7.0 cm; Colon length Mean ([1]; 0.25 mpk, QD): 6.8 cm; Colon length Mean ([1]; 0.625 mpk, QD): 7.3 cm; Colon length Mean ([1]; 2.5 mpk, QD): 7.3 cm; Colon length Mean ([1]; 10 mpk, QD): 7.9 cm; Recovery % (vs vehicle) ([1]; 0.1 mpk, QD): 25.46%; Reduction % (vs naïve) ([1]; 0.1 mpk, QD): 14.63%; Recovery % (vs vehicle) ([1]; 0.25 mpk, QD): 11.18%; Reduction % (vs naïve) ([1]; 0.25 mpk, QD): 17.44%; Recovery % (vs vehicle) ([1]; 0.625 mpk, QD): 40.99%; Reduction % (vs naïve) ([1]; 0.625 mpk, QD): 11.59%; Recovery % (vs vehicle) ([1]; 2.5 mpk, QD): 45.34%; Reduction % (vs naïve) ([1]; 2.5 mpk, QD): 10.73%; Recovery % (vs vehicle) ([1]; 10 mpk, QD): 82.06%; Reduction % (vs naïve) ([1]; 10 mpk, QD): 3.52%; gland loss scores ([4]; at 0.1 mg/kg QD and >0.625 mg/kg QD): decreased severity
9.40 | 9.25 | Cn1cc2cc(-c3ccc4cc([C@H](O)C5CCOCC5)sc4n3)cnc2n1 (single isomer, unassigned) [Compound B15R] | 7.6 | 7.84 | 8.09 | 7.89 | 42.29 | 14.97 | 57.64 | 12.28 | 63.43 | 8.09 | 54.80 | 11.72 | decreased severity | decreased severity | decreased severity | colon length comparing to vehicle group ([1]; different doses daily): significant improvement of colon length; gland loss scores ([4]; all doses evaluated): decreased severity
6.82 | 9.30 | Cn1cc2cc(-c3ccc4cc([C@@H](O)C5CCOCC5)sc4n3)cnc2n1 [Compound B15S, (S)-(6-(2-methyl-2H-pyrazolo[3,4-b]pyridin-5-yl)thieno[2,3-b]pyridin-2-yl)(tetrahydro-2H-pyran-4-yl)methanol] | 6.51 | 6.60 | 6.52 | 6.90 | 13.4 | 24.8 | 17.0 | 23.7 | 13.7 | 24.7 | 29.0 | 20.3 | – | – | – | colon length comparing to vehicle group ([1]; 5 mg/kg and 20 mg/kg once daily): significant improvement of colon length; Colon length Mean ([1]; 20 mpk, QD): 6.97 cm; Recovery % (vs vehicle) ([1]; 20 mpk, QD): 31.9%; Reduction % (vs naïve) ([1]; 20 mpk, QD): 19.5%; times less potent than B15R in the biochemical assay ([2]; S-enantiomer versus R-enantiomer): around 200
9.45 | 9.80 | CO[C@H]1C[C@](O)(c2cc3ccc(-c4cnc5nn(C)cc5c4)nc3s2)C1 [Compound C31C, cis-3-methoxy-1-(6-(2-methyl-2H-pyrazolo[3,4-b]pyridin-5-yl)thieno[2,3-b]pyridin-2-yl)cyclobutanol] | – | – | – | – | – | – | – | – | – | – | – | – | – | – | – | –
9.12 | 9.46 | OC1(c2cc3ccc(-c4cnc5[nH]ncc5c4)nc3s2)CC(F)(F)C1 [Compound C36, 3,3-difluoro-1-(6-(1H-pyrazolo[3,4-b]pyridin-5-yl)thieno[2,3-b]pyridin-2-yl)cyclobutanol] | – | – | – | – | – | – | – | – | – | – | – | – | – | – | – | –
8.91 | 8.67 | OC1(c2cc3ccc(-c4cnc5[nH]cnc5c4)nc3s2)CC(F)(F)C1 [Compound C41, 3,3-difluoro-1-(6-(3H-imidazo[4,5-b]pyridin-6-yl)thieno[2,3-b]pyridin-2-yl)cyclobutanol] | – | – | – | – | – | – | – | – | – | – | – | – | – | – | – | –
8.59 | 8.97 | Cn1cnc2cc(-c3ccc4cc(C5(O)CC(F)(F)C5)sc4n3)cnc21 [Compound C33, 3,3-difluoro-1-(6-(3-methyl-3H-imidazo[4,5-b]pyridin-6-yl)thieno[2,3-b]pyridin-2-yl)cyclobutanol] | – | – | – | – | – | – | – | – | – | – | – | – | – | – | – | –
8.68 | 7.76 | Cc1nc2cc(-c3ccc4cc([C@@H](O)C5CC(F)(F)C5)sc4n3)ccc2o1 (single isomer, unassigned) [Compound B46S] | – | – | – | – | – | – | – | – | – | – | – | – | – | – | – | –
9.40 | 9.52 | [2H][C@](O)(c1cc2ccc(-c3cnc4nn(C)cc4c3)nc2s1)C1CCOCC1 (single isomer, unassigned) [Compound B66R] | – | – | – | – | – | – | – | – | – | – | – | – | – | – | – | –
